“And” between values parts separate entries of the source, which are not always exact repeats. Equal values may be shown once.
Legend:
BR16 CTC-derived cells = experiment: FDA-approved compound screen for CTC cluster dissociation (high content imaging); type: cell-based, human; settings: even at lowest concentration tested (0.1 μM), 2 days, hypoxia
Experimental: In order to identify actionable vulnerabilities of CTC clusters, and to test whether the epigenetic and transcriptional features of clustered CTCs are reversible upon cluster dissociation into single cells the following steps were undertaken. First, the expression of all known cell-cell junction (CCJ) components in patient samples obtained from normal breast (TGCA REF), breast cancer (TOGA REF), single CTCs and CTC clusters were assessed (Aceto et al. Cell 2014). While breast cancer cells tend to only partially reduce their CCJ repertoire compared to normal breast cells, CTCs express only a small fraction of CCJ components, likely as a consequence to their increased motility. Yet, CTC clusters retain a higher number of CCJs as compared to single CTCs. […] To this end, 2′486 FDA-approved compounds were evaluated for their ability to dissociate clusters of human breast CTC-derived cells. Cluster dissociation was assessed using a high content screening microscope and comparing cells treated with each individual compound to steady state clustered BR16 cells and 40 μm-filtered BR16 single cell suspension as negative and positive controls, respectively (FIG. 4a). […] For the majority of the 2′486 FDA-approved compounds, when using a 5 μM concentration for 2 days in hypoxic conditions, no detectable reduction in cell viability (>70% viability) nor mean cluster size (>450 μm2) in BR16 CTC-derived cells was observed. […] These compounds include inhibitors of Na^+/K^+ ATPases (n=6), HDACs (n=2), nucleotide biosynthesis (n=5), kinases (n=4), GPCRs (n=2), cholesterol biosynthesis (n=1), nuclear export (n=1), tubulin (n=9), as well as DNA binding compounds (n=8) and antibiotics (n=1).
A library containing 2,486 FDA-approved compounds was purchased from the Nexus Platform ETH Zurich. Each compound was resuspended using CTC medium at a 15 μM concentration and 20 μl were aliquoted in duplicate in a total of 64 Flat Bottom Clear Ultra Low attachment 96-well plates (Corning, Cat #3474).
To reduce cluster size in CTC derived cell lines, a 40 μm cell strainer was used (Corning, Cat #431750). […] Plates were incubated in hypoxia (5% oxygen) for 2 days and then 20 μl were transferred into a 96 well Black/clear Tissue culture treated plate (BD Falcon, Cat #353219) containing 40 μl of D-PBS (Invitrogen, Cat #14190169) and stained for 1 hr at 37° C. with a final concentration of 4 μM Hoechst 34580 (Invitrogen, Cat #H21486), 2 μM TMRM (Invitrogen, Cat #T668) and 4 μM TOTO-3 (Invitrogen, Cat #T3604). For each plate, two positive controls (non-treated cells) and two negative controls (non-treated and […] cells) were included. Z-factors were calculated per individual plate using the following formula: Z′=1−3(σs+σc)/|μs−μc|^3 (σ: standard deviation, μ: mean, s: positive control and c: negative control) (Martin et al., PLoS One 9, e88338, 2014) and ranged between 0.62-0.937. Plates were scanned using Operetta High Content Imaging System (Perkin Elmer) and cluster analysis was performed using Harmony High Content Imaging and Analysis Software (Perkin Elmer).

BR16 cells = experiment: Tail vein injection of in vitro pre-treated BR16 cells, metastasis seeding; type: in vivo, NSG mice
Experimental: To test whether ouabain and digitoxin would also enable CTC clusters disruption in vivo, the inventors took a dual approach. First, the inventors tested whether a 17-day in vitro treatment with ouabain and digitoxin would translate into a reduced ability of the treated cells to efficiently seed metastasis in untreated mice (FIG. 7A). To this end, upon treatment, BR16 cells stably expressing GFP-luciferase were injected into the tail vein of NSG mice and noninvasively monitored through luminescence imaging for their ability to seed and propagate metastatic lesions.
For tail vein experiments, NOD SCID Gamma (NSG) mice (Jackson Labs) were injected with 1×10^6 BR16-mCherry cells resuspended in 100 μl D-PBS and monitored with IVIS Lumina II (Perkin Elmer). For CTC xenograft mouse model isolation, 1×10^6 LM2-GFP, 1×10^6 BRx50-GFP or 1×10^6 BR16-GFP cells were resuspended in 100 μl of 50% Cultrex PathClear Reduced Growth Factor Basement Membrane Extract (R&D Biosystems, Cat #3533-010-02) in D-PBS and injected orthotopically in NSG mice. Blood draw was performed 4-5 weeks after tumor onset for LM2 cells, 5-6 months after tumor onset for BR16 and 6-7 months after tumor onset for BRx50 cells.

[1] = system: BRx50 human CTC-derived cells; experiment: FDA-approved compound screen for CTC cluster dissociation (high content imaging); type: cell-based; settings: even at lowest concentration tested (0.1 μM)
BRx50 CTC cell line = experiment: 17-day treatment, WGBS and i-cisTarget analysis of DMRs that gain methylation; type: cell-based, human; settings: 20 nM
Experimental: (§1) In order to assess the effect of clustering on DNA methylation patterns and proliferation signature directly BR16 and BRx50 cell lines were cultured for 17 days to ensure that at least 4 divisions would take place. This is to allow proper time for DNA methylation remodeling to take place.
(§2) Under these conditions, for both CTC derived cell lines, a subset of cluster-associated hypomethylated DMRs from patient and xenografts regain ≥20% methylation.
(§3) Proteinase K digestion and bisulfite treatment was performed according to manufacturer's instructions for EZ DNA Methylation Direct Kit (Zymo, Cat #D5020). Bisulfite-treated DNA was eluted using 9 μl of Elution Buffer and used for library generation with TruSeq DNA methylation kit (Illumina, Cat #EGMK91396) according to manufacturer's instructions. For amplification, 18 cycles were performed using Failsafe Enzyme (Illumina, Cat #FSE51100) and indexes were introduced with Index Primers' Kit (Illumina, Cat #EGIDX81312). Library purification was performed using Agencourt AMPure XP beads at a ratio of 1:1 according to manufacturer's instructions. To avoid DNA loss during pipetting steps, Corning DeckWork low binding barrier pipet tips were used (Sigma, Cat #CLS4135-4X960EA). Library concentration was estimated using Qubit DS DNA HS Assay Kit according to manufacturer's instructions (Invitrogen, Cat #Q32854).
(§4) An enrichment score (ES) indicates the over- or underrepresentation of a certain object within a sample of many objects (=enrichment). […] A negative enrichment score indicates the opposite, namely that a feature is less present than to be expected by the values of other features in the sample. […] An enrichment score can be normalized by dividing a specific ES by the mean of the enrichment scores for all objects in the dataset to yield a normalized enrichment score (NES). Normalization of the enrichment score accounts for differences in gene set size and in correlations between gene sets and the expression dataset; therefore, a normalized enrichment scores (NES) can be used to compare analysis results across gene sets. Only TFBS with a NES score […] shown in the analysis.

BR16 CTC cell line = experiment: as above; type: cell-based, human; settings: 20 nM, 17-day treatment
Experimental: as §1, §2, §3, §4

SMILES: C[C@H]1O[C@@H](O[C@H]2[C@@H](O)C[C@H](O[C@H]3[C@@H](O)C[C@H](O[C@H]4CC[C@@]5(C)[C@H](CC[C@@H]6[C@@H]5CC[C@]5(C)[C@@H](C7=CC(=O)OC7)CC[C@]65O)C4)O[C@@H]3C)O[C@@H]2C)C[C@H](O)[C@@H]1O [digitoxin, Digitoxin]
- mean cluster size (BR16 CTC-derived cells): significant decrease in mean cluster size
- expression of cleaved caspase 3 compared to control cells (BR16 cells; cancer cells in lungs, pre-treated cells, day 1): significant increase
- ability of BR16 cells to lodge in the lung tissue immediately after injection (bioluminescence flux) (BR16 cells; cells pre-treated 17 days in vitro, 20 nM, tail vein, day 0): did not affect
- ability to survive during the first day upon arrival (bioluminescence flux) (BR16 cells; cells pre-treated 17 days in vitro, 20 nM, tail vein, day 1): reduced ability to survive
- metastatic outgrowth (BR16 cells; pre-treated cells, no further treatment in vivo, 72 days upon injection): delayed metastatic outgrowth
- mean cluster size [1]: significant decrease in mean cluster size
- NES score of TFBS BCL11A in DMRs with ≥20% gain in methylation (BRx50 CTC cell line): 7.65
- NES score of TFBS BDP1 in DMRs with ≥20% gain in methylation (BRx50 CTC cell line): 6.83
- NES score of TFBS BHLHE40/4 in DMRs with ≥20% gain in methylation (BRx50 CTC cell line): 4.61
- NES score of TFBS FOS in DMRs with ≥20% gain in methylation (BRx50 CTC cell line): 4.2 and 3.4
- NES score of TFBS HMBOX1 in DMRs with ≥20% gain in methylation (BRx50 CTC cell line): 3.749
- NES score of TFBS HSF1 in DMRs with ≥20% gain in methylation (BRx50 CTC cell line): 7.2
- NES score of TFBS KDM5D in DMRs with ≥20% gain in methylation (BRx50 CTC cell line): 3.77
- NES score of TFBS LEF1 in DMRs with ≥20% gain in methylation (BRx50 CTC cell line): 3.01
- NES score of TFBS LSM6 in DMRs with ≥20% gain in methylation (BRx50 CTC cell line): 3.05
- NES score of TFBS OCT4 in DMRs with ≥20% gain in methylation (BRx50 CTC cell line): 3.49 and 3.4 and 3.37
- NES score of TFBS POU1F1 in DMRs with ≥20% gain in methylation (BRx50 CTC cell line): 4.02 and 3.98
- NES score of TFBS REST in DMRs with ≥20% gain in methylation (BRx50 CTC cell line): 4.85 and 3.16 and 3.11
- NES score of TFBS STAT3 in DMRs with ≥20% gain in methylation (BRx50 CTC cell line): 3.22
- NES score of TFBS ZKSCAN8 in DMRs with ≥20% gain in methylation (BRx50 CTC cell line): 4.32
- NES score of TFBS ZNF493 in DMRs with ≥20% gain in methylation (BRx50 CTC cell line): 3.88
- number of DMRs with ≥20% gain in methylation (BRx50 CTC cell line): (n = 124)
- NES score of TFBS BDP1 in DMRs with ≥20% gain in methylation (BR16 CTC cell line): 4.18,
- NES score of TFBS CEBPD in DMRs with ≥20% gain in methylation (BR16 CTC cell line): 3.76
- NES score of TFBS EZH2 in DMRs with ≥20% gain in methylation (BR16 CTC cell line): 4.63
- NES score of TFBS FOS in DMRs with ≥20% gain in methylation (BR16 CTC cell line): 6.40 and 3.63 and 3.25
- NES score of TFBS FOXG1/O1 in DMRs with ≥20% gain in methylation (BR16 CTC cell line): 3.61
- NES score of TFBS IRX3 in DMRs with ≥20% gain in methylation (BR16 CTC cell line): 5
- NES score of TFBS IRX6 in DMRs with ≥20% gain in methylation (BR16 CTC cell line): 5 and 3.67
- NES score of TFBS KDM5A in DMRs with ≥20% gain in methylation (BR16 CTC cell line): 4.355
- NES score of TFBS MEIS1 in DMRs with ≥20% gain in methylation (BR16 CTC cell line): 3.11
- NES score of TFBS RORA in DMRs with ≥20% gain in methylation (BR16 CTC cell line): 4.93 and 3.45
- NES score of TFBS SOX2 in DMRs with ≥20% gain in methylation (BR16 CTC cell line): 3.22
- NES score of TFBS SOX18 in DMRs with ≥20% gain in methylation (BR16 CTC cell line): 3.99 and 3.91
- NES score of TFBS STAT3 in DMRs with ≥20% gain in methylation (BR16 CTC cell line): 3.31
- NES score of TFBS YAP5 in DMRs with ≥20% gain in methylation (BR16 CTC cell line): 5.4 and 5.32 and 4.56
- NES score of TFBS ZNF92 in DMRs with ≥20% gain in methylation (BR16 CTC cell line): 3.44
- number of DMRs with ≥20% gain in methylation (BR16 CTC cell line): (n = 150)

— patent US20220062317A1, “NA+/K+ ATPASE INHIBITORS FOR USE IN THE PREVENTION OR TREATMENT OF METASTASIS” (UNIVERSITÄT BASEL, priority 2018, published 2022)
